Test results reported in patent US4604238A, “Analogs of calcitonin” (Armour Pharmaceutical Company, priority 1984, dated 1986).
Bridge positions count the residues as written; N and C are the ends. Peptide text beside a SMILES is read from it.

Legend:
[1] = tested on: serum calcium concentration
Experimental: Biological Assay of Calcitonin Analogs In Vivo
Rats were divided into four groups of seven animals, and each group was assigned at random to a dose of standard or test solution. Low and high doses were chosen from the linear portion of the dose-response curve. For the salmon calcitonin standard, the values were 0.7 and 2.1 ng. peptide/100 g. body weight (BW). This dose approximates 3 and 9 MU/100 g. BW. Peptides were given by subcutaneous injection (0.2 ml/100 g. BW) and blood was withdrawn 1 hour later for serum calcium determination. Sera are processed and analyzed within two hours of collection. Results were analyzed within two hours of collection.

[2] = literature values, Experientia 32(9), 1104-1106 (1976); cited from earlier work

Compound: CC(C)C[C@H](NC(=O)CNC(=O)[C@@H]1CSSC[C@H](N)C(=O)NCC(=O)N[C@@H](CO)C(=O)N[C@@H](CC(C)C)C(=O)N[C@@H](CO)C(=O)N[C@@H]([C@@H](C)O)C(=O)N1)C(=O)NCC(=O)N[C@@H](CCCCN)C(=O)N[C@@H](CC(C)C)C(=O)N[C@@H](CO)C(=O)N[C@@H](CCC(N)=O)C(=O)N[C@@H](CCC(=O)O)C(=O)N[C@@H](CC(C)C)C(=O)N[C@@H](Cc1c[nH]cn1)C(=O)N[C@@H](CCCCN)C(=O)N[C@@H](CC(C)C)C(=O)N[C@@H](CCC(N)=O)C(=O)N[C@H](C(=O)N1CCC[C@H]1C(=O)N[C@@H](CCCNC(=N)N)C(=O)N[C@H](C(=O)N[C@@H](CC(N)=O)C(=O)N[C@H](C(=O)NCC(=O)N[C@@H](CO)C(=O)NCC(=O)N[C@H](C(=O)N1CCC[C@H]1C(N)=O)[C@@H](C)O)[C@@H](C)O)[C@@H](C)O)[C@@H](C)O [[Gly^2,Ser^3,Gly^8,des-Tyr^22]SCT, [Gly^2,Ser^3,Gly^8,des-Tyr^22]salmon calcitonin] (H-CGSLSTCGLGKLSQELHKLQTPRTNTGSGTP-NH2; disulfide 1-7)
- biological potency ([1]; rat, in vivo, sc): 8600 IU/mg

Compound: CC(C)C[C@H](NC(=O)[C@H](CCCCN)NC(=O)CNC(=O)[C@H](CC(C)C)NC(=O)[C@@H](NC(=O)[C@@H]1CSSC[C@H](N)C(=O)N[C@@H](CO)C(=O)N[C@@H](CC(N)=O)C(=O)N[C@@H](CC(C)C)C(=O)N[C@@H](CO)C(=O)N[C@@H]([C@@H](C)O)C(=O)N1)C(C)C)C(=O)N[C@@H](CO)C(=O)N[C@@H](CCC(N)=O)C(=O)N[C@@H](CCC(=O)O)C(=O)N[C@@H](CC(C)C)C(=O)N[C@@H](Cc1c[nH]cn1)C(=O)N[C@@H](CCCCN)C(=O)N[C@@H](CC(C)C)C(=O)N[C@@H](CCC(N)=O)C(=O)N[C@H](C(=O)N[C@@H](Cc1ccc(O)cc1)C(=O)N1CCC[C@H]1C(=O)N[C@@H](CCCNC(=N)N)C(=O)N[C@H](C(=O)N[C@@H](CC(N)=O)C(=O)N[C@H](C(=O)NCC(=O)N[C@@H](CO)C(=O)NCC(=O)N[C@H](C(=O)N1CCC[C@H]1C(N)=O)[C@@H](C)O)[C@@H](C)O)[C@@H](C)O)[C@@H](C)O [salmon calcitonin, Salmon calcitonin]
- potency of the standard salmon calcitonin used ([1]; independently determined content of the standard): greater than 4,000 IU/mg

Compound: eel calcitonin [synthetic eel calcitonin]
- hypocalcemic potency [2]: around 4300 IU/mg

Compound: (1,7α-L-aminosuberic acid)eel calcitonin
- hypocalcemic potency [2]: about 3400 IU/mg
